Measurements as given in the supplement of paper PMC10307832.

Key:
Experiment in all cases: relative viability (nuclei count vs DMSO), 5 days (fraction); higher = more cells survive
[1] = compound: CN(c1ncccc1CNc1nc(Nc2ccc3c(c2)CC(=O)N3)ncc1C(F)(F)F)S(C)(=O)=O + Nc1nc2[nH]cc(CCc3ccc(C(=O)N[C@@H](CCC(=O)O)C(=O)O)cc3)c2c(=O)[nH]1 [Pemetrexed] (partner 0.2 µM)
In short: (§1)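 The day after seeding in 1536-well plates, lung cancer cell lines were treated by pin tool with a single drug, or with a fixed anchor-drug dose together with five library-drug doses (not always all listed) in √10 steps. After 5 days, a combined fix-and-stain solution (final 0.05% Triton X-100, 1% formaldehyde, 1 ug/ml Hoechst) was added. Nuclei counted on 4× images gave relative viability as treated counts over vehicle counts, reported as the median of duplicate plates.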

[2] = compound: CN(c1ncccc1CNc1nc(Nc2ccc3c(c2)CC(=O)N3)ncc1C(F)(F)F)S(C)(=O)=O + CS(=O)(=O)CCNCc1ccc(-c2ccc3ncnc(Nc4ccc(OCc5cccc(F)c5)c(Cl)c4)c3c2)o1 [Lapatinib] (partner 2 µM)
In short: as §1

[3] = compound: CN(c1ncccc1CNc1nc(Nc2ccc3c(c2)CC(=O)N3)ncc1C(F)(F)F)S(C)(=O)=O + Cc1nc(Nc2ncc(C(=O)Nc3c(C)cccc3Cl)s2)cc(N2CCN(CCO)CC2)n1 [Dasatinib] (partner 0.075 µM)
In short: as §1

[4] = compound: CN(c1ncccc1CNc1nc(Nc2ccc3c(c2)CC(=O)N3)ncc1C(F)(F)F)S(C)(=O)=O + C[C@@H](Oc1cc(-c2cnn(C3CCNCC3)c2)cnc1N)c1c(Cl)ccc(F)c1Cl [Crizotinib] (partner 1 µM)
In short: as §1

Cell Line	relative viability ([1]; first compound 0.01 µM)	relative viability ([1]; first compound 0.03162 µM)	relative viability ([1]; first compound 0.1 µM)	relative viability ([1]; first compound 0.3162 µM)	relative viability ([1]; first compound 1 µM)	relative viability ([2]; first compound 0.03162 µM)	relative viability ([2]; first compound 0.1 µM)	relative viability ([2]; first compound 0.3162 µM)	relative viability ([2]; first compound 1 µM)	relative viability ([3]; first compound 0.01 µM)	relative viability ([3]; first compound 0.03162 µM)	relative viability ([3]; first compound 0.1 µM)	relative viability ([3]; first compound 0.3162 µM)	relative viability ([3]; first compound 1 µM)	relative viability ([4]; first compound 0.03162 µM)	relative viability ([4]; first compound 0.1 µM)	relative viability ([4]; first compound 0.3162 µM)	relative viability ([4]; first compound 1 µM)	relative viability ([2]; first compound 0.01 µM)	relative viability ([4]; first compound 0.01 µM)
LCLC-97TM1	0.149	0.164	0.125	0.133	0.13	0.658	0.841	0.752	0.516	0.727	0.794	0.815	0.773	0.722	0.434	0.416	0.224	0.181		
HARA	0.255	0.248	0.199	0.258	0.223	0.692	0.616	0.678	0.665	0.228	0.17	0.19	0.201	0.217	0.938	1	1.02	0.698	0.763	0.938
HCC-78	0.907	0.922	0.921	0.922	0.929	0.748	0.708	0.713	0.329	0.312	0.33	0.325	0.256	0.296	0.342	0.305	0.29	0.319	1.09	0.379
NCI-H1666	0.877	0.82	0.805	0.78	0.787	0.624	0.611	0.546	0.493	0.804	0.778	0.961	0.935	0.603	0.951	0.781	0.596	0.642	0.678	0.968
NCI-H2347	0.474	0.434	0.403	0.44	0.399	1.01	0.88	0.863	0.833	0.283	0.313	0.331	0.297	0.283	0.692	0.61	0.661	0.658	1.04	0.698
NCI-H838	0.247	0.258	0.247	0.219	0.238	1.23	0.981	0.753	0.638	0.27	0.279	0.217	0.305	0.205	1.02	0.873	0.672	0.488	0.958	0.807
NCI-H2023	0.181	0.241	0.221	0.228	0.214	0.976	0.781	0.908	0.761	0.476	0.588	0.428	0.432	0.448	0.766	0.682	0.585	0.537	0.855	0.679
201T	0.336	0.333	0.383	0.34	0.316	1	0.962	0.924	0.988	0.602	0.55	0.45	0.538	0.517	0.991	1.02	0.975	1	1.08	1.05
NCI-H1915	0.528	0.569	0.455	0.517	0.538	0.919	0.912	0.93	0.969	0.296	0.269	0.292	0.295	0.309	0.915	0.877	0.834	0.885	0.99	0.908
NCI-H2009	1.03	1	0.923	1.01	0.948	0.959	0.891	0.897	0.903	0.23	0.217	0.244	0.229	0.238	1.06	1.06	1.02	1.04	1.38	1.01
BEN	0.771	0.753	0.777	0.809	0.671	0.689	0.654	0.715	0.686	0.319	0.312	0.272	0.289	0.267	0.949	0.813	0.848	0.848	0.699	0.825
PC-14	0.162	0.135	0.134	0.128	0.134	0.373	0.292	0.323	0.33	0.211	0.191	0.14	0.211	0.158	0.858	1.04	0.872	0.765	0.366	0.874
SK-MES-1	0.968	0.894	0.882	0.904	0.762	0.456	0.473	0.422	0.474	0.236	0.262	0.132	0.171	0.163	0.989	0.944	0.983	0.846	0.456	0.943
